In brackets after ≈: the same amount, converted by molar mass. Where two headings read alike, the source gives them in different places.
Columns and labels:
[1] = test system: Huh-7 cell line; experiment: Resazurin cell growth inhibition assay, Huh-7; assay type: cell-based, human; settings: for IC50: Homo sapiens
Text: (§1) All compounds 2a-e, 3a-d, and PPAD’s 4a-t were subjected to a screening system for evaluation of their anticancer activity against cell line of human cancer, namely liver (HepG2 and Huh-7) cancer and normal fibroblast cells obtained from the German Cancer Research Center (DKFZ), following the Resazurin Cell Growth Inhibition Assay[45] in comparison to the standard treatment using DOX (see Supplementary).
(§2) Cell culture and treatment
(§3) All reagents were handled in a sterile fume hood. DMEM medium, and fetal bovine serum (FBS) were purchased from Gibco;phosphate-buffered saline pH 7.4 (PBS) and trypsin-EDTA were obtained from Sigmae Aldrich. Alamar Blue or Resazurin (Promega,Mannheim, Germany) reduction assay was used to assess the cytotoxicity of the studied samples. The growth medium (DMEMmedium with 10% FBS, 10 0 U/mL penicillin, and 10 0 mg/L streptomycin), and alamar blue were stored at 48 C, while trypsineEDTA and FBS were stored frozen at 208C and thawed before use; PBS was stored at room temperature. The Hep-G2, Huh-7 and normal fibroblast cells were obtained from the German Cancer Research Center (DKFZ).Cells were cultured in 50 cm2 culture flask s (Corning) using DMEM medium supplemented with 10% FBS, penicillin (10 0 IU/mL), and streptomycin ([…]). The culture was maintained at 37 C atmosphere of 5% CO2 and 95% relative humidity. The cells were transferred to a new fl ask every 2 days and treated with trypsineEDTA to detach them from the flask . Cells were counted under a microscope using a hemacytometer (Hausser Scientific).Cell solutions were diluted with growth medium to a concentration of 1 *10^5 cells/mL and transferred to a 96-well plate, and treated with gradient concentrations of test compounds.
(§4) Resazurin cell growth inhibition assay
(§5) Alamar Blue or Resazurin (Promega, Mannheim, Germany) reduction assay was used to assess the cytotoxicity of the studied samples. The assay tests cellular viability and mitochondrial function. Briefly y, adherent cells were grown in tissue culture flask s, and then harvested by treating the fl asks with 0.025% trypsin and0.25 mM EDTA for 5 min. Once detached, cells were washed, counted and an aliquot (5 * 103cells) was placed in each well of a96-well cell culture plate in a total volume of […]. Cells were allowed to attach overnight and then treated with samples. The final concentration of samples ranged from 0 to 10 0 mM. After 4 8 h,[…] Resazurin 0.01% w/v solution was added to each well and the plates were incubated at 37C for 1 -2 h. Fluorescence was measured on an automated 96-well Infinite M2000 ProTM plate reader (Tecan, Crailsheim, Germany) using an excit ation wave-length of 54 4 nm and an emission wavelength of 590 nm. Doxorubicin was used as positive control. Each assay was done at least three times, with two replicates each. The viability was compared based on a comparison with untreated cells. IC50(on cancer cells) were the concentration of sample required to inhibit 50% of the cell proliferation and were calculated from a calibration curve by a linear regression using Microsoft Excel

[2] = Resazurin cell growth inhibition assay, normal fibroblast cells; assay type: cell-based; settings: M ± SEM of three independent experiments, read-out: Cytotoxic activity IC50, Fibroblast
Text: as §1, §2, §3, §4, §5

[3] = test system: HepG2 cell line; experiment: Resazurin cell growth inhibition assay, HepG2; assay type: cell-based, human; settings: for IC50: Homo sapiens
Text: as §1, §2, §3, §4, §5

[4] = Huh-7, 48 h, resazurin assay, 48 h, M ± SEM of three independent experiments, read-out: Cytotoxic activity IC50, Huh-7 cell line
[5] = HepG2, 48 h, resazurin assay, 48 h, M ± SEM of three independent experiments, read-out: Cytotoxic activity IC50, HepG2 cell line
[6] = HepG2, converted from μg/mL, read-out: IC50 against HepG2 cell line, equivalent in μM
[7] = resazurin assay, 48 h, M ± SEM of three independent experiments

| Compound | IC50 [1, 4] | IC50 at 48 h [2] | IC50 [3, 5] | melting point | IC50 [3, 6] | Cytotoxic activity IC50, HepG2 cell line [3, 7] | IC50 ([1]; Huh-7, converted from μg/mL, read-out: IC50 against Huh-7 cell line, equivalent in μM) | Cytotoxic activity IC50, Huh-7 cell line [1, 7] |
| --- | --- | --- | --- | --- | --- | --- | --- | --- |
| N#Cc1c(-c2ccccc2)nc(NN)[nH]c1=O [Compound 2a] | 21.7 ± 1.18 µg/mL | 40 ± 1.24 µg/mL (≈ 176 µM) | 20.8 ± 1.6 µg/mL |  |  |  |  |  |
| N#Cc1c(-c2ccc(F)cc2)nc(NN)[nH]c1=O [Compound 2b] | 21.6 ± 2.19 µg/mL | 40.6 ± 2.45 µg/mL (≈ 165 µM) | 22.2 ± 2.2 µg/mL |  |  |  |  |  |
| N#Cc1c(-c2c[nH]c3ccccc23)nc(NN)[nH]c1=O [Compound 2c] | 21.3 ± 2.37 µg/mL | 40.2 ± 2.13 µg/mL (≈ 151 µM) | 20.2 ± 1.88 µg/mL |  |  |  |  |  |
| COc1cc(-c2nc(NN)[nH]c(=O)c2C#N)cc(OC)c1OC [Compound 2d] | 21.8 ± 3.18 µg/mL | 40.1 ± 1.37 µg/mL (≈ 126 µM) | 20.6 ± 2.14 µg/mL |  |  |  |  |  |
| CN(C)c1ccc(-c2nc(NN)[nH]c(=O)c2C#N)cc1 [Compound 2e, 4-[4-(Dimethylamino)phenyl]-2-hydrazino-6-oxo-1,6-dihydropyrimidine-5-carbonitrile] | 21 ± 4.12 µg/mL | 40.4 ± 1.89 µg/mL (≈ 150 µM) | 20.1 ± 3 µg/mL | 214 to 216 °C |  |  |  |  |
| O=C(/C=C/c1ccc(F)cc1)c1c2ccccc2cc2ccccc12 [Compound 3a] | 21.8 ± 1.24 µg/mL | 40.6 ± 2.48 µg/mL (≈ 124 µM) | 22.2 ± 2.45 µg/mL |  |  |  |  |  |
| CN(C)c1ccc(/C=C/C(=O)c2c3ccccc3cc3ccccc23)cc1 [Compound 3b] | 21 ± 1.12 µg/mL | 40.7 ± 2.34 µg/mL (≈ 116 µM) | 21.4 ± 2.76 µg/mL |  |  |  |  |  |
| COc1cc(/C=C/C(=O)c2c3ccccc3cc3ccccc23)cc(OC)c1OC [Compound 3c] | 21.5 ± 4.13 µg/mL | 40.8 ± 4.51 µg/mL (≈ 102 µM) | 21.5 ± 2.54 µg/mL |  |  |  |  |  |
| O=C(/C=C/c1c[nH]c2ccccc12)c1c2ccccc2cc2ccccc12 [Compound 3d, (2E)-1–(9-anthryl)-3-(1H-indol-3-yl)prop-2-en-1-one] | 22.6 ± 3.3 µg/mL | 40.8 ± 4.72 µg/mL (≈ 117 µM) | 22.5 ± 2.8 µg/mL | 170 to 172 °C |  |  |  |  |
| N#Cc1c(-c2ccccc2)nc(N2N=C(c3c4ccccc4cc4ccccc34)CC2c2ccc(F)cc2)[nH]c1=O (stereo not shown) [Compound 4a, 2-[3-Anthracene-9-yl-5–(4-fluoro-phenyl)-4,5-dihydro-pyrazol-1-yl]-6-oxo-4-phenyl-1,6-dihydro-pyrimidine-5-carbonitrile] | 16.8 ± 3.45 µg/mL | 32.3 ± 5.22 µg/mL (≈ 60.3 µM) | 11.3 ± 2.11 µg/mL | 150 to 151 °C |  |  |  |  |
| CN(C)c1ccc(C2CC(c3c4ccccc4cc4ccccc34)=NN2c2nc(-c3ccccc3)c(C#N)c(=O)[nH]2)cc1 (stereo not shown) [Compound 4b, 2-[3-Anthracene-9-yl-5–(4-dimethylamino-phenyl)-4,5-dihydro-pyrazol-1-yl]-6-oxo-4-phenyl-1,6-dihydro-pyrimidine-5-carbonitrile] | 10.9 ± 2.14 µg/mL | 33 ± 6.51 µg/mL (≈ 58.9 µM) | 15.3 ± 4.21 µg/mL | 120 to 122 °C |  |  |  |  |
| COc1cc(C2CC(c3c4ccccc4cc4ccccc34)=NN2c2nc(-c3ccccc3)c(C#N)c(=O)[nH]2)cc(OC)c1OC (stereo not shown) [Compound 4c, 2-[3-Anthracene-9-yl-5–(3,4,5-trimethoxy-phenyl)-4,5-dihydro-pyrazol-1-yl]-6-oxo-4-phenyl-1,6-dihydro-pyrimidine-5-carbonitrile] | 11.3 ± 1.09 µg/mL | 29.3 ± 3.51 µg/mL (≈ 48.2 µM) | 15.3 ± 4.22 µg/mL | 110 to 112 °C |  |  |  |  |
| N#Cc1c(-c2ccccc2)nc(N2N=C(c3c4ccccc4cc4ccccc34)CC2c2c[nH]c3ccccc23)[nH]c1=O (stereo not shown) [Compound 4d, 2-[3-Anthracene-9-yl-5-(1H-indol-3-yl)-4,5-dihydro-pyrazol-1-yl]-6-oxo-4-phenyl-1,6-dihydro-pyrimidine-5-carbonitrile] | 8.42 ± 1.04 µg/mL | 21.5 ± 4.07 µg/mL (≈ 38.6 µM) | 17.2 ± 4.04 µg/mL | 135 to 137 °C |  |  |  |  |
| CN(C)c1ccc(C2CC(c3c4ccccc4cc4ccccc34)=NN2c2nc(-c3ccc(F)cc3)c(C#N)c(=O)[nH]2)cc1 (stereo not shown) [Compound 4f, 2-[3-Anthracene-9-yl-5–(4-dimethylamino-phenyl)-4,5-dihydro-pyrazol-1-yl]-4–(4-fluoro-phenyl)-6-oxo-1,6-dihydro-pyrimidine-5-carbonitrile] | 8.45 ± 0.75 µg/mL | 33.1 ± 6.52 µg/mL (≈ 57.3 µM) | 4.2 µg/mL |  | 7.2 µM | 4.22 ± 0.94 µg/mL |  |  |
| COc1cc(C2CC(c3c4ccccc4cc4ccccc34)=NN2c2nc(-c3ccc(F)cc3)c(C#N)c(=O)[nH]2)cc(OC)c1OC (stereo not shown) [Compound 4g, 2-[3-Anthracene-9-yl-5–(3,4,5-trimethoxy-phenyl)-4,5-dihydro-pyrazol-1-yl]-4–(4-fluoro-phenyl)-6-oxo-1,6-dihydro-pyrimidine-5-carbonitrile] | 4.78 ± 0.24 µg/mL | 25.3 ± 4.87 µg/mL (≈ 40.5 µM) | 7.22 ± 1.85 µg/mL |  |  |  | 7.6 µM |  |
| N#Cc1c(-c2ccc(F)cc2)nc(N2N=C(c3c4ccccc4cc4ccccc34)CC2c2c[nH]c3ccccc23)[nH]c1=O (stereo not shown) [Compound 4h, 2-[3-Anthracene-9-yl-5-(1H-indol-3-yl)-4,5-dihydro-pyrazol-1-yl]-4–(4-fluoro-phenyl)-6-oxo-1,6-dihydro-pyrimidine-5-carbonitrile] | 9.77 ± 1.48 µg/mL | 23.5 ± 4.21 µg/mL (≈ 40.9 µM) | 7.45 ± 1.11 µg/mL | 143 to 145 °C |  |  |  |  |
| CN(C)c1ccc(C2CC(c3c4ccccc4cc4ccccc34)=NN2c2nc(-c3c[nH]c4ccccc34)c(C#N)c(=O)[nH]2)cc1 (stereo not shown) [Compound 4j, 2-[3-Anthracene-9-yl-5–(4-dimethylamino-phenyl)-4,5-dihydro-pyrazol-1-yl]-4-(1H-indol-3-yl)-6-oxo-1,6-dihydro-pyrimidine-5-carbonitrile] | 13.2 ± 3.05 µg/mL | 34.1 ± 5.17 µg/mL (≈ 56.9 µM) | 12.2 ± 2.53 µg/mL | 240 to 242 °C |  |  |  |  |
| COc1cc(C2CC(c3c4ccccc4cc4ccccc34)=NN2c2nc(-c3c[nH]c4ccccc34)c(C#N)c(=O)[nH]2)cc(OC)c1OC (stereo not shown) [Compound 4k, 2-[3-Anthracene-9-yl-5–(3,4,5-trimethoxy-phenyl)-4,5-dihydro-pyrazol-1-yl]-4-(1H-indol-3-yl)-6-oxo-1,6-dihydro-pyrimidine-5-carbonitrile] | 13.5 ± 2.32 µg/mL | 27 ± 4.12 µg/mL (≈ 41.8 µM) | 14.1 ± 3.01 µg/mL | 228 to 230 °C |  |  |  |  |
| N#Cc1c(-c2c[nH]c3ccccc23)nc(N2N=C(c3c4ccccc4cc4ccccc34)CC2c2c[nH]c3ccccc23)[nH]c1=O (stereo not shown) [Compound 4l, 2-[3-Anthracene-9-yl-5-(1H-indol-3-yl)-4,5-dihydro-pyrazol-1-yl]-4-(1H-indol-3-yl)-6-oxo–1,6-dihydro-pyrimidine-5-carbonitrile] | 12.4 ± 1.75 µg/mL | 20.2 ± 3.18 µg/mL (≈ 34 µM) | 14.6 ± 2.12 µg/mL | 220 to 222 °C |  |  |  |  |
| COc1cc(-c2nc(N3N=C(c4c5ccccc5cc5ccccc45)CC3c3ccc(N(C)C)cc3)[nH]c(=O)c2C#N)cc(OC)c1OC (stereo not shown) [Compound 4n, 2-[3-Anthracene-9-yl-5–(4-dimethylamino-phenyl)-4,5-dihydro-pyrazol-1-yl]-6-oxo-4–(3,4,5-trimethoxy-phenyl)-1,6-dihydro-pyrimidine-5-carbonitrile] | 9.54 ± 2.16 µg/mL | 18.6 ± 3.17 µg/mL (≈ 28.5 µM) | 9.66 ± 1.31 µg/mL | 170 to 172 °C |  |  |  |  |
| COc1cc(-c2nc(N3N=C(c4c5ccccc5cc5ccccc45)CC3c3c[nH]c4ccccc34)[nH]c(=O)c2C#N)cc(OC)c1OC (stereo not shown) [Compound 4p, 2-[3-Anthracene-9-yl-5-(1H-indol-3-yl)-4,5-dihydro-pyrazol-1-yl]-6-oxo-4–(3,4,5-trimethoxy-phenyl)-1,6-dihydro-pyrimidine-5-carbonitrile] | 8.14 ± 1.65 µg/mL | 18.2 ± 4.02 µg/mL (≈ 28.2 µM) | 11.2 ± 1.2 µg/mL |  |  |  |  |  |
| COc1cccc2c1C(=O)c1c(O)c3c(c(O)c1C2=O)C[C@@](O)(C(=O)CO)C[C@@H]3O[C@H]1C[C@H](N)[C@H](O)[C@H](C)O1 [Doxorubicin, reference compound] | 5.43 µg/mL | 24.1 ± 3.53 µg/mL (≈ 44.4 µM) | 5.43 ± 0.24 µg/mL |  | 10.1 µM |  |  | 6.40 ± 0.43 µg/mL |

Reference: PMC6537702, “Design, synthesis, molecular modelling, and biological evaluation of novel substituted pyrimidine derivatives as potential anticancer agents for hepatocellular carcinoma” (Journal of Enzyme Inhibition and Medicinal Chemistry, 2019)
